Test results from US20220296583A1, “COMPOSITIONS AND METHODS FOR TREATMENT OF OVARIAN AND BREAST CANCER” (Board of Regents, The University of Texas System, priority 2021, published 2022).

Tests used:
[1] = system: HDAC4 (Ser246)/HDAC5 (Ser256)/HDAC7 (Ser155); experiment: Western analysis of HDAC4/5/7 phosphorylation; assay type: cell-based; conditions: 4 μM, 24 hrs; nearly all the cell lines tested
Procedure: To identify the mechanism(s) by which SIK2 inhibition decreases DNA DBS repair, it was tested whether SIK2 inhibitors decrease the phosphorylation of class IIa HDACs, which control its nuclear cytoplasmic shuttling and consequently its association with DNA. […] Next, it was investigated whether SIK2 inhibitors increase nuclear localization of HDAC5. SIK2 inhibition increased nuclear localization of HDAC5 judged by increasing nuclear florescence intensity (FIG. 7B and FIG. 8A) and the nuclear fraction of HDAC5 expression (FIG. 8B). […] Therefore, it was hypothesized that SIK2 inhibition may block MEF transcription factor activity. […] Next, it was examined whether SIK2 regulation of MEF2 activity was HDAC4/5-dependent, increasing its binding to MEF2D protein. […] These observations are consistent with the hypothesis that SIK2 inhibition increases nuclear localization of HDAC4/5, blocking MEF2 transcription (FIG. 8E).
Cells were incubated with and without treatment for the intervals indicated and then cells were incubated in lysis buffer (50 mM Hepes, pH 7.0, 150 mM NaCl, 1.5 mM MgCl2, 1 mM EGTA, 10, 10% glycerol, 1% Triton X-100, 50 mM NaF, 1 mM Na3VO4 1 mM PMSF, 10 μg/mL leupeptin and10 μg/mL aprotinin) on ice for 30 min. […] The protein concentration was assessed using a bicinchoninic acid (BCA) protein assay (Thermo Scientific, 23228). […]

SKOv3 xenograft = experiment: SKOv3 subcutaneous xenograft, Compound B, carboplatin and paclitaxel; assay type: in vivo, mice; conditions: SKOv3 s.c., 6 weeks
Procedure: After treatment as indicated in (A) for three weeks, mice were weighed, and intraperitoneal nodules were excised and weighed. […] Mice were treated with single, double, or triple agents for 6 weeks. Tumor was measured once a week until the tumor burden in control group reached maximum allowance. The graphs indicate the mean±standard deviation. Statistical significance is indicated by *p<0.05, **p<0.01, and ***p<0.0001.
Six-week-old female athymic nu/nu mice were purchased from Envigo. Experiments were reviewed and all procedures were performed according to an animal protocol approved by the Institutional Animal Care and Use Committee of UT MD Anderson Cancer Center. […] Carboplatin was administrated i.p. once a week at a dose of 25 mg/kg. […] Carboplatin was treated at a dose of 30 mg/kg once a week for six weeks. […] At end of six weeks, the mice were sacrificed by CO2. The mice were dissected immediately after death and the tumors were collected and weighed.
OVCAR8 cells were injected intraperitoneally (ip) into nu/nu mice. Treatment started 7 days post injection. […] At the conclusion of the treatment, the mice were sacrificed, and the tumor was dissected and weighed (FIG. 23A). […] The tumor volume was measured at indicated time points (FIG. 23D).

## COc1c(F)cc(F)cc1-c1c[nH]c2ncc(-c3cnn(C4CCN(S(C)(=O)=O)CC4)c3)cc12 [Compound B, 3-(3,5-difluoro-2-methoxyphenyl)-5-(1-(1-(methylsulfonyl)piperidin-4-yl)-1H-pyrazol-4-yl)-1H-pyrrolo[2,3-b]pyridine]
[1]
  phosphorylation of HDAC4/HDAC5/HDAC7: significantly decreased
SKOv3 xenograft; Compound B 40 mg/kg
  tumor growth (tumor volume): significantly inhibited tumor growth
SKOv3 xenograft; p<0.01
  effect when added to carboplatin plus paclitaxel: further enhanced the combination treatment of carboplatin plus paclitaxel
